Source: patent US11167012B2, “Peptide inhibition of CCR3-mediated diseases or conditions” (The Board of Trustees of the University of Illinois, priority 2015, dated 2021)
Entries after “also recorded” stand apart in the source; their conditions may differ. Where a SMILES comes first, the peptide text is derived from it. The star is where a group is joined. X1 = NC(=O)CCOCCOCCOCCOCCOCCOCCOCCOCCOCCOCCOCCOCCOCCOCCOCCOCCOCCOCCOCCOCCOCCOCCOCCOCCOCCOCCOCCOCCN*

Legend:
CCR3 [1] = molecular target: T1, CCR3 (Homo sapiens, UniProt P51677); assay: NMR (13C HSQC) evaluation of binding to CCR3 membrane preparations; set-up: expressed in transfected cells; host or cells: 4DE4 mouse pre-B cell lymphoma line; conditions: 10 μM R321, 1 μM CCL11, CCR3 membrane preps 0.25 mg/ml
T1 sequence (P51677 1-355): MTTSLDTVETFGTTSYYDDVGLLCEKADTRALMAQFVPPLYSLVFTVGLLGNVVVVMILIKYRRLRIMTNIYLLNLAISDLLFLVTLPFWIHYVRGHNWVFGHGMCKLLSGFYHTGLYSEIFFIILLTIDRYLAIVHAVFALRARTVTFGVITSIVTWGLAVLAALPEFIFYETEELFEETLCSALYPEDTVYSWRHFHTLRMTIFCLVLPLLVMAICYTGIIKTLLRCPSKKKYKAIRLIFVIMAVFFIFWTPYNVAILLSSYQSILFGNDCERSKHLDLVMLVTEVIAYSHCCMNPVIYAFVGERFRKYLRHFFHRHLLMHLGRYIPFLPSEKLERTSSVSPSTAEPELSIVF
Protocol: FIG. 6A to FIG. 6E show NMR evaluation of the binding of R3-2-1 and CCL11/eotaxin-1 to CCR3 membrane preparations. ^13C HSQC spectra of ^13C-reductively methylated CCR3 membrane preps (0.25 mg/ml) were recorded with 1 μM CCL11 and 10 μM R321. […] Black arrows indicate the differences in chemical shifts.
Ligand binding to GPCR induces conformational transitions in the receptor that activate G-proteins and β-arrestin recruitment. […] Because R3-2-1 is an analog of the second transmembrane helix of CCR3, it is expected that R3-2-1 competes with the native helix 2 for binding to helices 1 and 3. Binding to helix 3 may disrupt the structure and orientation of the DRY motif in intracellular loop 2, inhibiting G-proteins.

CCR3 [2] = molecular target: T1, CCR3; assay: Chemotaxis assay (Transwell), AML14.3D10-CCR3 cells; assay type: cell-based; set-up: host or cells: AML14.3D10-CCR3 (eosinophilic myelocytic cell line, kept under G418); conditions: for IC90: 4 hours
Protocol: AML14.3D10-CCR3 (ATCC, Manassas, Va.; Daugherty, et al. (1996) J. Exp. Med. 183:2349-2354) were maintained in RPMI-1640 supplemented with 10% FBS, 1.5 g/L sodium bicarbonate, 4.5 g/L glucose, 2 mM L-glutamine, 10 mM HEPES, 1 mM sodium pyruvate, 50 μM β-mercaptoethanol, and 2 mg/ml G418 in a humidified incubator with 5% CO2 at 37° C.
Cell migration was determined using a 96-well […]® system (Corning, Tewksbury, Mass.). […] The two chambers were separated by a polycarbonate filter with 5 μm pores. For AML14.3D10-CCR3 cells, 2×10^5 cells/well were resuspended in RPMI-1640+0.1% BSA and allowed to migrate for 4 hours at 37° C. For blood eosinophils, 1×10^5 cells/well were resuspended in X-VIVO 10+0.5% BSA and allowed to migrate for 3 hours at 37° C. Migrated cells were counted using a Beckman QUANTA SC flow cytometer. All experiments were performed in duplicate. Checkerboard analysis was done to distinguish chemotaxis from chemokinesis.
Primary eosinophils and the stable CCR3+eosinophilic myelocytic cell line, AML14.3D10-CCR3 (Daugherty, et al. (1996) J. Exp. Med. 183:2349-2354) undergo CCR3-mediated chemotaxis induced by multiple chemokines including eotaxin/CCL11, RANTES/CCL5, MCP-4/CCL13, and MEC/CCL28 (Daugherty, et al. (1996) J. Exp. Med. 183:2349-2354; Pan, et al. (2000) J. Immunol. 165:2943-2949).

[3] = tested on: eosinophil recruitment into the esophageal epithelium; assay: Mouse model of EoE, oxazalone-challenged L2-IL5 transgenic mice; assay type: in vivo; conditions: i.v., 24 hours after last OXA challenge
Protocol: Skin sensitized L2-IL5 transgenic mice received topical esophageal oxazalone (OXA) challenges by gavage (i.e.) on days 5, 8 and 12 (FIG. 5A). R3-2-1 peptide nanoparticles, control peptide (R3-2-3) or CCR3 inhibitor UCB35625 (UCB) were given immediately before on days 5, 8, 10 and 12 (FIG. 5A). Esophageal eosinophilia was assessed 24 hours after the last OXA challenge and treatment (day 13). […] Error bars represent SEM.
Mice were treated i.v. with R3-2-1 peptide, scrambled R3-2-3 control peptide ([…]-PEG27-NH2; SEQ ID NO:24), or the allosteric non-selective CCR3 inhibitor, UCB35625. Eosinophil recruitment into the esophageal epithelium was assessed 24 hours after the last OXA challenge by counting eosinophils in 9 high power fields (hpf) covering the total esophagus or 3 hpf covering the distal esophagus.

`CC[C@H](C)[C@H](NC(=O)[C@H](Cc1c[nH]c2ccccc12)NC(=O)[C@H](Cc1ccccc1)NC(=O)[C@@H]1CCCN1C(=O)[C@H](CC(C)C)NC(=O)[C@@H](NC(=O)[C@@H](NC(=O)[C@H](CC(C)C)NC(=O)[C@H](Cc1ccccc1)NC(=O)[C@H](CC(C)C)NC(=O)[C@@H](N)CC(C)C)C(C)C)[C@@H](C)O)C(=O)N[C@@H](Cc1c[nH]cn1)C(=O)N[C@@H](Cc1ccc(O)cc1)C(=O)N[C@H](C(=O)N[C@@H](CCCNC(=N)N)C(=O)NCC(=O)N[C@@H](Cc1c[nH]cn1)C(=O)N[C@@H](CC(N)=O)C(=O)N[C@@H](Cc1c[nH]c2ccccc12)C(=O)N[C@H](C(=O)N[C@@H](Cc1ccccc1)C(=O)NCC(=O)N[C@@H](Cc1c[nH]cn1)C(=O)N[C@@H](CC(=O)O)C(=O)N[C@@H](CC(=O)O)C(=O)N[C@@H](CC(=O)O)C(=O)NCCOCCOCCOCCOCCOCCOCCOCCOCCOCCOCCOCCOCCOCCOCCOCCOCCOCCOCCOCCOCCOCCOCCOCCOCCOCCOCCOCCOCCC(N)=O)C(C)C)C(C)C` [Peptide R3-2-1] (H-LLFLVTLPFWIHYVRGHNWVFGHDDD-X1; N-terminus assumed) was tested, and the “binding to CCR3 by NMR chemical shift changes” value (CCR3 [1]) was “chemical shift changes indicative of binding”, the “tolerance to inhibition of CCL11-induced chemotaxis” value (CCR3 [2]; 1 μM for 24, 48 or 72 hour, CCL11 12 nM) was “retains it full inhibitory activity” and the “chemotactic (agonist) activity by itself” value (CCR3 [2]; AML14.3D10-CCR3 cells, no chemokine) was “not chemotactic”. The “inhibition of CCR3-mediated chemotaxis induced by Eotaxin/CCL11, RANTES/CCL5 and MEC/CCL28” value (CCR3 [2]; AML14.3D10-CCR3 cells, R3-2-1 0.4, 2 or 10 μM) was “inhibits chemotaxis induced by Eotaxin/CCL11, RANTES/CCL5 and MEC/CCL28 in a dose-dependent fashion”, the IC90 (CCR3 [2]; AML14.3D10-CCR3 cells, chemotaxis to CCL11/Eotaxin-1 (12 nM)) was 1750 ± 200 nM and the IC90 (CCR3 [2]; AML14.3D10-CCR3 cells, chemotaxis to CCL24/Eotaxin-2 (20 nM)) was 890 ± 120 nM. For the same molecule, the IC90 (CCR3 [2]; AML14.3D10-CCR3 cells, chemotaxis to CCL26/Eotaxin-3 (100 nM)) was 780 ± 100 nM and the “eosinophil recruitment into distal and total esophageal epithelium” value [3] was “significantly blocked eosinophil recruitment; also recorded: significantly reduced eosinophil recruitment”.
